Test results as given in ChEMBL document CHEMBL4118195, “Synthesis and profiling of benzylmorpholine 1,2,4,5-tetraoxane analogue N205: Towards tetraoxane scaffolds with potential for single dose cure of malaria” (Bioorg Med Chem, 2018).

Tests used:
[1] = test system: Plasmodium berghei; assay: Antimalarial activity against Plasmodium berghei infected in mouse assessed as reduction in parasitemia at 30 mg/kg, po administered as single dose measured on day 3 relative to control; type: functional; design: scale not given: the % may be the effect or the level left
[2] = Drug degradation in rat liver microsomes assessed as compound half life at 5 uM by UPLC-MS method; type: ADME, microsome
[3] = Drug degradation in mouse liver microsomes assessed as compound half life at 1 uM by UPLC-MS method; type: ADME, microsome
[4] = Intrinsic clearance in rat liver microsomes assessed per mg protein at 1 uM by UPLC-MS analysis; type: ADME, microsome; settings: read-out: CLH
[5] = Intrinsic clearance in mouse liver microsomes assessed per mg protein at 5 uM by UPLC-MS analysis; type: ADME, microsome; settings: read-out: CLH
[6] = Drug metabolism in rat liver microsomes assessed as metabolite M+16 (III) formation at 5 uM after 60 mins by UPLC-MS analysis; type: ADME, microsome; settings: 1 h
[7] = Drug metabolism in mouse liver microsomes assessed as metabolite M+16 (IV) formation at 5 uM after 60 mins by UPLC-MS analysis; type: ADME, microsome; settings: 1 h
[8] = Drug metabolism in rat liver microsomes assessed as metabolite M+32 (II) formation at 5 uM after 60 mins by UPLC-MS analysis; type: ADME, microsome; settings: 1 h
[9] = Drug metabolism in human liver microsomes assessed as metabolite M+32 (III) formation at 5 uM after 60 mins by UPLC-MS analysis; type: ADME, microsome; settings: 1 h
[10] = Drug metabolism in rat liver microsomes assessed as ring dehydrogenated metabolite formation at 5 uM after 60 mins by UPLC-MS analysis; type: ADME, microsome; settings: 1 h
[11] = Drug metabolism in human liver microsomes assessed as morpholine ring opened metabolite formation at 5 uM after 60 mins by UPLC-MS analysis; type: ADME, microsome; settings: 1 h
[12] = Drug metabolism in human liver microsomes assessed as morpholine dealkylated metabolite formation at 5 uM after 60 mins by UPLC-MS analysis; type: ADME, microsome; settings: 1 h
[13] = Drug metabolism in rat liver microsomes assessed as open morpholine ring metabolite formation at 5 uM after 60 mins by UPLC-MS analysis; type: ADME, microsome; settings: 1 h
[14] = Drug metabolism in human liver microsomes assessed as bis-oxygenation and dehydrogenation metabolite formation at 5 uM after 60 mins by UPLC-MS analysis; type: ADME, microsome; settings: 1 h
[15] = Drug metabolism in rat liver microsomes assessed as bis-oxygenation and dehydrogenation metabolite formation at 5 uM after 60 mins by UPLC-MS analysis; type: ADME, microsome; settings: 1 h
[16] = target: Cytochrome P450 3A4 (Homo sapiens, UniProt P08684); assay: Inhibition of CYP3A4 in human liver microsomes assessed as midazolam 1'-hydroxylation after 4 to 40 mins in presence of NADPH by LCMS analysis; type: ADME
[17] = test system: Mus musculus; assay: Dose normalized Cmax in humanized NOD.Cg-Prkdcscid Il2rgtm1Wjl/SzJ mouse infected with Plasmodium falciparum Pf3D70087/N9 at 30 mg/kg, po administered as single dose after 0.25 to 23 hrs by LC-MS/MS analysis; type: ADME, organism-based; settings: in vivo
[18] = Tmax in humanized NOD.Cg-Prkdcscid Il2rgtm1Wjl/SzJ mouse infected with Plasmodium falciparum Pf3D70087/N9 at 15 mg/kg, po administered as single dose by LC-MS/MS analysis; type: ADME, organism-based; settings: in vivo
[19] = Tmax in humanized NOD.Cg-Prkdcscid Il2rgtm1Wjl/SzJ mouse infected with Plasmodium falciparum Pf3D70087/N9 at 50 mg/kg, po administered as single dose by LC-MS/MS analysis; type: ADME, organism-based; settings: in vivo
[20] = AUC (0 to t) in humanized NOD.Cg-Prkdcscid Il2rgtm1Wjl/SzJ mouse infected with Plasmodium falciparum Pf3D70087/N9 at 15 mg/kg, po administered as single dose by LC-MS/MS analysis; type: ADME, organism-based; settings: in vivo
[21] = AUC (0 to t) in humanized NOD.Cg-Prkdcscid Il2rgtm1Wjl/SzJ mouse infected with Plasmodium falciparum Pf3D70087/N9 at 30 mg/kg, po administered as single dose by LC-MS/MS analysis; type: ADME, organism-based; settings: in vivo
[22] = AUC (0 to t) in humanized NOD.Cg-Prkdcscid Il2rgtm1Wjl/SzJ mouse infected with Plasmodium falciparum Pf3D70087/N9 at 50 mg/kg, po administered as single dose by LC-MS/MS analysis; type: ADME, organism-based; settings: in vivo
[23] = test system: Mus musculus; assay: Dose normalized AUC (0 to t) in humanized NOD.Cg-Prkdcscid Il2rgtm1Wjl/SzJ mouse infected with Plasmodium falciparum Pf3D70087/N9 at 5 mg/kg, po administered as single dose by LC-MS/MS analysis; type: ADME, organism-based; settings: in vivo
[24] = test system: Mus musculus; assay: Dose normalized AUC (0 to t) in humanized NOD.Cg-Prkdcscid Il2rgtm1Wjl/SzJ mouse infected with Plasmodium falciparum Pf3D70087/N9 at 30 mg/kg, po administered as single dose by LC-MS/MS analysis; type: ADME, organism-based; settings: in vivo
[25] = test system: Mus musculus; assay: Dose normalized AUC (0 to t) in humanized NOD.Cg-Prkdcscid Il2rgtm1Wjl/SzJ mouse infected with Plasmodium falciparum Pf3D70087/N9 at 100 mg/kg, po administered as single dose by LC-MS/MS analysis; type: ADME, organism-based; settings: in vivo
[26] = Retention time of the compound; type: physicochemical

Cytochrome P450 3A4, sequence (P08684 whole entry): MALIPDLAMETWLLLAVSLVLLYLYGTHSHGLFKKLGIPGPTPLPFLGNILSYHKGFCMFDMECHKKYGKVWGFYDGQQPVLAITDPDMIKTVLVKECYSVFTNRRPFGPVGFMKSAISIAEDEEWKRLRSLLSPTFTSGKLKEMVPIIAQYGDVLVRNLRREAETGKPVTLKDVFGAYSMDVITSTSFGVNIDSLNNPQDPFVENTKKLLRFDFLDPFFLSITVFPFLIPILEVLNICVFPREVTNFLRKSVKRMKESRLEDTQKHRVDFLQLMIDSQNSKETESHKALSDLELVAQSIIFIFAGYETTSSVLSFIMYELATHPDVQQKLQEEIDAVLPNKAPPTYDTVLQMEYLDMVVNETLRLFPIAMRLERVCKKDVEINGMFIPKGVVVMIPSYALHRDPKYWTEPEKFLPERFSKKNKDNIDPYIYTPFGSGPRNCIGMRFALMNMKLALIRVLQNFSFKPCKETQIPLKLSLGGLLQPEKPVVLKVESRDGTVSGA

## c1cc(C2CCC3(CC2)OOC2(OO3)C3CC4CC(C3)CC2C4)ccc1CN1CCOCC1 (stereo unspecified)
[1]
  Activity: 99.42%
[2]
  half-life at 5 µM: 20 min
[3]
  half-life at 1 µM: 48 min
[4]
  microsomal CLint at 1 µM: 118 µL/min/mg
[5]
  microsomal CLint at 5 µM: 20 µL/min/mg
[6]
  Drug metabolism: Metabolite_Notdetected
[7]
  Drug metabolism: Metabolite_Detected
[8]
  Drug metabolism: Metabolite_Notdetected
[9]
  Drug metabolism: Metabolite_Notdetected
[10]
  Drug metabolism: Metabolite_Notdetected
[11]
  Drug metabolism: Metabolite_Notdetected
[12]
  Drug metabolism: Metabolite_Notdetected
[13]
  Drug metabolism: Metabolite_Notdetected
[14]
  Drug metabolism: Metabolite_Notdetected
[15]
  Drug metabolism: Metabolite_Notdetected
[16]
  IC50: > 20 µM
[17]
  Cmax/dose: 0.0049 µg/mL/mg/kg
[18]
  Tmax: 60 min
[19]
  Tmax: 120 min
[20]
  AUC(0-t): 749 ng·h/mL
[21]
  AUC(0-t): 940 ng·h/mL
[22]
  AUC(0-t): 3000 ng·h/mL
[23]
  AUCt/dose: 0.256 µg·h/mL/mg/kg
[24]
  AUCt/dose: 0.0313 µg·h/mL/mg/kg
[25]
  AUCt/dose: 0.0232 µg·h/mL/mg/kg
[26]
  Retention_time: 3.68 min
